Laboratory results: patent US7759366B2 (Sanofi-Aventis, priority 2006, dated 2010)

Target: hCB1R (Homo sapiens, UniProt P21554)
Sequence (P21554 whole entry): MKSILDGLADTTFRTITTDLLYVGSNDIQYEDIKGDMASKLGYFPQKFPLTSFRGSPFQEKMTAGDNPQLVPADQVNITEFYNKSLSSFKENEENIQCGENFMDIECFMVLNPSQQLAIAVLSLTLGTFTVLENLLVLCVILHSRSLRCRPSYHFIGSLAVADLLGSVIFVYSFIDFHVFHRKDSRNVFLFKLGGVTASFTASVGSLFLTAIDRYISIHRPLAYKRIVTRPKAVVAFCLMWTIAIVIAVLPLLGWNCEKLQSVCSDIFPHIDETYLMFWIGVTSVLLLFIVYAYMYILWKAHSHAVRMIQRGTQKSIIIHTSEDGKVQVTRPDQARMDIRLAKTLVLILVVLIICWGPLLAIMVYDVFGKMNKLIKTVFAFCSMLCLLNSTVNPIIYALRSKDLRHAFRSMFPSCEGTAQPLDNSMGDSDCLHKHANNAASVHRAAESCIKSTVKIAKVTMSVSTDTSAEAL
Assay: In vitro functional assay (FLIPR, intracellular Ca2+) with recombinant HEK293 cells, CB1
Assay type: cell-based
Design: expressed in transfected cells; host or cells: HEK293
Details: recombinant HEK293 cells expressing CB1 and Galpha16; 20 min preincubation, then reference agonist; Ca2+ change; read-out: hCB1R: FLIPR; IC50
From the text: In Vitro Functional Assays with Recombinant Cells:

How did the IC50 turn out when CC1(C)C(=O)N(c2ccc(C#N)c(C(F)(F)F)c2)C(=O)N1Cc1ccccc1Nc1ccc2cc(C(=O)O)ccc2c1 [Example 209, 6-{2-[3-(4-cyano-3-trifluoromethylphenyl)-5,5-dimethyl-2,4-dioxoimidazolidin-1-ylmethyl]phenylamino}naphthalene-2-carboxylic acid] was run?
Its IC50 is 62 nM.

CC(C)(C)c1cc(N2C(=O)N(Cc3ccc(F)cc3Nc3ccc(F)cc3F)C(C)(C)C2=O)ccc1C#N [Example 221, 2-tert-butyl-4-{3-[2-(2,4-difluorophenylamino)-4-fluorobenzyl]-4,4-dimethyl-2,5-dioxoimidazolidin-1-yl}benzonitrile] was tested. Which IC50 did it give?
The IC50 was 10 nM.

How did the IC50 turn out when CC1(C)C(=O)N(c2ccc(C#N)c(C(F)(F)F)c2)C(=O)N1Cc1cc(Cl)cc(Cl)c1Nc1ccc(F)cc1 [Example 38, 4-{3-[3,5-Dichloro-2-(4-fluorophenylamino)benzyl]-4,4-dimethyl-2,5-dioxoimidazolidin-1-yl}-2-trifluoromethylbenzonitrile] was run?
The IC50 was 70 nM.

COC(=O)c1ccc(Nc2cc(F)ccc2CN2C(=O)N(c3ccc(F)c(C(F)(F)F)c3)C(=O)C2(C)C)cn1 [Example 255, Methyl 5-{5-fluoro-2-[3-(4-fluoro-3-trifluoromethylphenyl)-5,5-dimethyl-2,4-dioxoimidazolidin-1-ylmethyl]phenylamino}pyridine-2-carboxylate] was tested. Which IC50 did it give?
The IC50 was 28 nM.

CC1(C)C(=O)N(c2ccc(C#N)c(C(F)(F)F)c2)C(=O)N1Cc1ccccc1Nc1cccc(Cl)c1 [Example 22, 4-{3-[2-(3-chlorophenylamino)benzyl]-4,4-dimethyl-2,5-dioxoimidazolidin-1-yl}-2-trifluoromethylbenzonitrile] was tested. Which IC50 did it give?
The IC50 was 46 nM.

Which IC50 does the source give for CC1(C)C(=O)N(c2ccc(C#N)c(C(F)(F)F)c2)C(=O)N1Cc1ccccc1Nc1ccccc1Cl [Example 21, 4-{3-[2-(2-chlorophenylamino)benzyl]-4,4-dimethyl-2,5-dioxoimidazolidin-1-yl}-2-trifluoromethylbenzonitrile] here?
Its IC50 is 10 nM.

For CC(C)(C)c1cc(N2C(=O)N(Cc3ccc(F)cc3Nc3ccc(C(=O)O)cc3)C(C)(C)C2=O)ccc1C#N [Example 169, 4-{2-[3-(3-tert-butyl-4-cyanophenyl)-5,5-dimethyl-2,4-dioxoimidazolidin-1-ylmethyl]-5-fluorophenylamino}benzoic acid], which IC50 is on record?
Its IC50 is 9 nM.

With CC1(C)C(=O)N(c2ccc(F)c(C(F)(F)F)c2)C(=O)N1Cc1ccc(F)cc1Nc1ccc(F)nc1 [Example 254, 1-[4-Fluoro-2-(6-fluoropyridin-3-ylamino)benzyl]-3-(4-fluoro-3-trifluoromethylphenyl)-5,5-dimethylimidazolidine-2,4-dione] as the compound, how does the IC50 read?
The IC50 was 2 nM.

CC(C)(C)Oc1ncc(Nc2ccccc2CN2C(=O)N(c3ccc(C#N)c(C(F)(F)F)c3)C(=O)C2(C)C)c(OC(C)(C)C)n1 [Example 208, 4-{3-[2-(2,4-di-tert-butoxypyrimidin-5-ylamino)benzyl]-4,4-dimethyl-2,5-dioxoimidazolidin-1-yl}-2-trifluoromethylbenzonitrile] was tested. Which IC50 did it give?
The IC50 was 13 nM.

For CC1(C)C(=O)N(c2ccc(C#N)c(C(F)(F)F)c2)C(=O)N1Cc1ccccc1Nc1ccc(S(C)(=O)=O)cc1Cl [Example 14, 4-{3-[2-(2-chloro-4-methylsulfonylphenylamino)benzyl]-4,4-dimethyl-2,5-dioxoimidazolidin-1-yl}-2-trifluoromethylbenzonitrile], which IC50 is on record?
The IC50 was 108 nM.

CC1(C)C(=O)N(c2ccc(C#N)c(-c3ccc(F)cc3)c2)C(=O)N1Cc1ccc(F)cc1Nc1ccc(F)cc1F [Example 253, 5-{3-[2-(2,4-Difluorophenylamino)-4-fluorobenzyl]-4,4-dimethyl-2,5-dioxoimidazolidin-1-yl}-4′-fluorobiphenyl-2-carbonitrile] was tested. Which IC50 did it give?
Its IC50 is 29 nM.

For CC1(C)C(=O)N(c2ccc(C#N)c(C(F)(F)F)c2)C(=O)N1Cc1ccc(C(F)(F)F)cc1Nc1ccc(C(=O)O)cc1 [Example 107, 4-{2-[3-(4-cyano-3-trifluoromethylphenyl)-5,5-dimethyl-2,4-dioxoimidazolidin-1-ylmethyl]-5-trifluoromethylphenylamino}benzoic acid], which IC50 is on record?
The IC50 was 112 nM.

With CC1(C)C(=O)N(c2ccc(C#N)c(C(F)(F)F)c2)C(=O)N1Cc1ccccc1Nc1ccc(NS(C)(=O)=O)cc1 [Example 175, N-(4-{2-[3-(4-Cyano-3-trifluoromethylphenyl)-5,5-dimethyl-2,4-dioxoimidazolidin-1-ylmethyl]phenylamino}phenyl)methanesulfonamide] as the compound, how does the IC50 read?
The IC50 was 9 nM.

With CC1(C)C(=O)N(c2ccnc(C(F)(F)F)c2)C(=O)N1Cc1ccccc1Nc1ccccc1 [Example 65, 5,5-Dimethyl-1-(2-phenylaminobenzyl)-3-(2-trifluoromethylpyridin-4-yl)imidazolidine-2,4-dione] as the compound, how does the IC50 read?
Its IC50 is 145 nM.

With CC1(C)C(=O)N(c2ccc(C#N)c(C(F)(F)F)c2)C(=O)N1Cc1ccccc1Nc1ccc(C(C(=O)O)C(=O)O)cc1 [Example 238, 2-(4-{2-[3-(4-cyano-3-trifluoromethylphenyl)-5,5-dimethyl-2,4-dioxoimidazolidin-1-ylmethyl]phenylamino}phenyl)malonic acid] as the compound, how does the IC50 read?
The IC50 was 10 nM.

How did the IC50 turn out when COC(=O)c1ccc(Nc2ccccc2CN2C(=O)N(c3ccc(C#N)c(C(F)(F)F)c3)C(=O)C2(C)C)c(F)c1 [Example 72, methyl 4-{2-[3-(4-cyano-3-trifluoromethylphenyl)-5,5-dimethyl-2,4-dioxoimidazolidin-1-ylmethyl]phenylamino}-3-fluorobenzoate] was run?
Its IC50 is 24 nM.

With COC(=O)C1=C[C@@H](O)[C@H](O)[C@@H](Oc2ccc(Nc3ccccc3CN3C(=O)N(c4ccc(C#N)c(C(F)(F)F)c4)C(=O)C3(C)C)cc2)O1 [Example 145, methyl (4R,5S,6S)-6-(4-{2-[3-(4-cyano-3-trifluoromethylphenyl)-5,5-dimethyl-2,4-dioxoimidazolidin-1-ylmethyl]phenylamino}phenoxy)-4,5-dihydroxy-5,6-dihydro-4H-pyran-2-carboxylate] as the compound, how does the IC50 read?
Its IC50 is 14 nM.

Which IC50 does the source give for CC1(C)C(=O)N(c2ccc(C#N)c(C(F)(F)F)c2)C(=O)N1Cc1ccc(Cl)cc1Nc1ccc(C(=O)O)cc1 [Example 131, 4-{5-chloro-2-[3-(4-cyano-3-trifluoromethylphenyl)-5,5-dimethyl-2,4-dioxoimidazolidin-1-ylmethyl]phenylamino}benzoic acid] here?
The IC50 was 15 nM.

With CC(C)(C)OC(=O)c1ccc(Nc2cc(F)ccc2CN2C(=O)N(c3ccc(C#N)c(C(F)(F)F)c3)C(=O)C2(C)C)cc1 [Example 125, tert-butyl 4-{2-[3-(4-cyano-3-trifluoromethylphenyl)-5,5-dimethyl-2,4-dioxoimidazolidin-1-ylmethyl]-5-fluorophenylamino}benzoate] as the compound, how does the IC50 read?
The IC50 was 110 nM.

Which IC50 does the source give for CC1(C)C(=O)N(c2ccc(C#N)c(C(F)(F)F)c2)C(=O)N1Cc1ccccc1Nc1ccc(C(=O)O)cc1F [Example 80, 4-{2-[3-(4-cyano-3-trifluoromethylphenyl)-5,5-dimethyl-2,4-dioxoimidazolidin-1-ylmethyl]phenylamino}-3-fluorobenzoic acid] here?
The IC50 was 33 nM.

CC1(C)C(=O)N(c2ccc(C#N)c(C(F)(F)F)c2)C(=O)N1Cc1ccccc1Nc1ccc(C#N)cc1 [Example 33, 4-{3-[2-(4-cyanophenylamino)benzyl]-4,4-dimethyl-2,5-dioxoimidazolidin-1-yl}-2-trifluoromethylbenzonitrile] was tested. Which IC50 did it give?
Its IC50 is 4 nM.

Which IC50 does the source give for CC1(C)C(=O)N(c2ccc(C#N)c(-c3ccc(Cl)cc3)c2)C(=O)N1Cc1ccc(F)cc1Nc1ccc(C(=O)O)cc1 [Example 228, 4-{2-[3-(4′-chloro-6-cyanobiphenyl-3-yl)-5,5-dimethyl-2,4-dioxoimidazolidin-1-ylmethyl]-5-fluorophenylamino}benzoic acid] here?
Its IC50 is 61 nM.

For CC1(C)C(=O)N(c2ccc(C#N)c(C(F)(F)F)c2)C(=O)N1Cc1cc(Cl)cc(Cl)c1Nc1ccc(F)cc1F [Example 39, 4-{3-[3,5-dichloro-6-(2,4-difluorophenylamino)benzyl]-4,4-dimethyl-2,5-dioxoimidazolidin-1-yl}-2-trifluoromethylbenzonitrile], which IC50 is on record?
The IC50 was 69 nM.

With CC1(C)C(=O)N(c2ccc(C#N)c(C(F)(F)F)c2)C(=O)N1Cc1c(Cl)cc(Cl)cc1Nc1ccc(F)cc1 [Example 35, 4-{3-[2,4-Dichloro-6-(4-fluorophenylamino)benzyl]-4,4-dimethyl-2,5-dioxoimidazolidin-1-yl}-2-trifluoromethylbenzonitrile] as the compound, how does the IC50 read?
The IC50 was 15 nM.

With CC1(C)C(=O)N(c2ccc(C#N)c(C(F)(F)F)c2)C(=O)N1Cc1ccccc1Nc1ccccc1F [Example 44, 4-{3-[2-(2-fluorophenylamino)benzyl]-4,4-dimethyl-2,5-dioxoimidazolidin-1-yl}-2-trifluoromethylbenzonitrile] as the compound, how does the IC50 read?
The IC50 was 7 nM.

Which IC50 does the source give for CC1(C)C(=O)N(c2ccc(C#N)c(C3CC3)c2)C(=O)N1Cc1ccc(F)cc1Nc1ccc(C(=O)O)cc1 [Example 159, 4-{2-[3-(4-cyano-3-cyclopropylphenyl)-5,5-dimethyl-2,4-dioxoimidazolidin-1-ylmethyl]-5-fluorophenylamino}benzoic acid] here?
Its IC50 is 2 nM.

How did the IC50 turn out when CC1(C)C(=O)N(c2ccc(C#N)c(C(F)(F)F)c2)C(=O)N1Cc1c(Cl)cc(Cl)cc1Nc1ccc(Cl)cc1 [Example 37, 4-{3-[2,4-dichloro-6-(4-chlorophenylamino)benzyl]-4,4-dimethyl-2,5-dioxoimidazolidin-1-yl}-2-trifluoromethylbenzonitrile] was run?
Its IC50 is 21 nM.

With CC1(C)C(=O)N(c2ccc(F)c(C(F)(F)F)c2)C(=O)N1Cc1ccc(F)cc1Nc1ccc2c(c1)CCC2=O [Example 206, 1-[4-fluoro-2-(1-oxoindan-5-ylamino)benzyl]-3-(4-fluoro-3-trifluoromethylphenyl)-5,5-dimethylimidazolidine-2,4-dione] as the compound, how does the IC50 read?
The IC50 was 24 nM.

CC1(C)C(=O)N(c2ccc(C#N)c(C(F)(F)F)c2)C(=O)N1Cc1ccccc1Nc1ccc2c(c1)C(=O)OC2 [Example 200, 4-{4,4-dimethyl-2,5-dioxo-3-[2-(3-oxo-1,3-dihydroisobenzofuran-5-ylamino)benzyl]imidazolidin-1-yl}-2-trifluoromethylbenzonitrile] was tested. Which IC50 did it give?
Its IC50 is 8 nM.
